Measured values reported in publication PMC12752606, “METTL10‐Mediated PIAS3 Methylation Links Purine Metabolism to Gastric Cancer Progression” (Advanced Science, 2025).

Columns and labels:
METTL10 = tested on: T1, METTL10; experiment: In vitro (cell-free) methylation of GST-PIAS3 by His-METTL10, immunoblotting; assay type: biochemical; conditions: 20 µM or higher; GST-PIAS3 with His-METTL10
T1 construct: purchased ICE Bioscience Inc
Experimental: For the in vitro methylation assay, His‐METTL10 (1 µg) was incubated with recombinant human Histone H4 protein (20 ng; Abcam, ab198115) or GST‐PIAS3 (100 ng) of in methylation reaction buffer (50 mM Tris‐HCl (pH 8.0), 20 mM KCl, 5 mM DTT, 4 mM EDTA) containing 20 µM S‐(5′‐adenosyl)‐L‐methionine chloride dihydrochloride (SAM) at 37 °C for 1 h. The reaction was terminated by boiling the samples in SDS‐PAGE loading buffer, and the products were analyzed by immunoblotting.

[1] = tested on: MITF ubiquitination in MKN45 and AGS cells; experiment: Endogenous MITF ubiquitination and degradation in GC cells (IP and immunoblotting); assay type: cell-based; conditions: 20 µM, MG132 5 µM pretreatment
Experimental: Protein extraction from tissues or cells was performed by lysis buffer (20 mM Tris‐HCl (pH 7.5), 150 mM NaCl, 1 mM EDTA, 1 mM EGTA, 2.5 mM sodium pyrophosphate, 1 mM β‐glycerolphosphate, 1% Triton X‐100) supplemented with 1% phenylmethylsulfonyl fluoride (PMSF; Solarbio, P0100) and protease inhibitor cocktail (Apexbio, K1007) and lysed at 4 °C for 60 min, followed by centrifugation at 12000 g for 15 min at 4 °C. For Immunoblotting, the protein concentration was determined using the Pierce BCA Protein Assay Kit (Thermo Fisher Scientific, A55864). The protein samples were denatured by boiling in SDS‐PAGE loading buffer. For immunoprecipitation, antibodies were incubated with Dynabeads Protein G (Thermo, 10004D) at 4 °C for 4 h. The supernatant was then incubated with magnetic beads conjugated with antibodies or anti‐FLAG‐M2 magnetic beads (Sigma–Aldrich, M8823) at 4 °C overnight. Following incubation, the magnetic beads were washed three times with lysis buffer and then boiled in SDS‐PAGE loading buffer. […]
Plasmids were transfected into HEK293T cells for 24 h or into gastric cells for 36 h. […] After lysing the cells with lysis buffer, the samples were subjected to immunoprecipitation and analyzed by immunoblotting.

PRMT5+MTA = PRMT5+MTA (Homo sapiens, UniProt O14744); experiment: Off-target methyltransferase profiling (MTase-Glo); assay type: biochemical
PRMT5+MTA, sequence (O14744 whole entry, species assumed): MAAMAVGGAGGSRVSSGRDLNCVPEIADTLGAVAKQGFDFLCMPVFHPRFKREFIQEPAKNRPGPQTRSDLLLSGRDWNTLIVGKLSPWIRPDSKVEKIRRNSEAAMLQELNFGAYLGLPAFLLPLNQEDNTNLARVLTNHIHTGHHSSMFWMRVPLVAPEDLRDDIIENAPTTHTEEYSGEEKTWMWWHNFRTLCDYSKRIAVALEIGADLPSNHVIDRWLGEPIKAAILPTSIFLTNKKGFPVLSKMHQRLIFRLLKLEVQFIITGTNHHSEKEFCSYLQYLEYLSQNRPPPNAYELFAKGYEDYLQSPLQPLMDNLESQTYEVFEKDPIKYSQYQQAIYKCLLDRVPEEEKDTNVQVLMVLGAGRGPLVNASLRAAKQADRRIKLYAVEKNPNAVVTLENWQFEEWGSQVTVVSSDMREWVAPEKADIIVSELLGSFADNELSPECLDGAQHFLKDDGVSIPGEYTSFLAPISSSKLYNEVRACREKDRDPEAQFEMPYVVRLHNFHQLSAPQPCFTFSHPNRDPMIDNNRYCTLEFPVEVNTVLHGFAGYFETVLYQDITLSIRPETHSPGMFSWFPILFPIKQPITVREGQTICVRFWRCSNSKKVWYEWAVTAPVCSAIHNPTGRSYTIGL
PRMT5+MTA, sequence (Q9BQA1 whole entry partner, species assumed): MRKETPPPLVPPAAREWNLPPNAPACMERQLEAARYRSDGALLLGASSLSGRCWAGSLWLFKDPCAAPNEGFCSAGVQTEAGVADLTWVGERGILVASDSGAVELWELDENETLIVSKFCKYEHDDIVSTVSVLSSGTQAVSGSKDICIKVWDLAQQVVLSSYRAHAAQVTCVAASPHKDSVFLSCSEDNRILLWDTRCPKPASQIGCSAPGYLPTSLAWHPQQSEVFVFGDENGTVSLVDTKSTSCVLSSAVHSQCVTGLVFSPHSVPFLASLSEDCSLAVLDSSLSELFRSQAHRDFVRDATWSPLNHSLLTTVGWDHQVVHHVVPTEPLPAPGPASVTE
Experimental: To evaluate the off‐target effects of LZQ‐02‐023‐01 on methyltransferase activity, a panel of enzymes was assessed using the MTase‐Glo Methyltransferase Assay (Promega), following the manufacturer's instructions. The assay was performed by ICE Bioscience Inc. Briefly, LZQ‐02‐023‐01 was serially diluted 4‐fold in DMSO to generate a 10‐point concentration gradient, and the resulting solutions were dispensed into 384‐well white assay plates using an Echo acoustic liquid handler (Labcyte). Plates were centrifuged at 1000 rpm for 1 min to ensure even compound distribution. Following a 10‐min preincubation at 25 °C, 2 µL of a substrate solution containing S‐adenosylmethionine (SAM) and the specific methyltransferase substrate (Table S7, Supporting Information) was added to each well. After a brief centrifugation, plates were incubated at 25 °C for 180 min to allow the enzymatic methylation reaction to proceed. Subsequently, 1 µL of MTase‐Glo reagent was added, followed by centrifugation and incubation at 25 °C for 45 min. Then, 5 µL of MTase‐Glo detection solution was introduced into each well, and the plates were incubated for an additional 45 min at 25 °C after centrifugation.
Luminescence signals were directly proportional to methyltransferase activity, were recorded using a microplate reader (BMG LABTECH). Percent inhibition was calculated by normalizing luminescence intensities of compound‐treated wells to DMSO‐treated controls, and IC50 values were calculated using GraphPad Prism 8 software.

[2] = tested on: MITF ubiquitination mediated by PIAS3 and METTL10; experiment: In vitro ubiquitination assay with purified Flag-MITF; assay type: biochemical; conditions: 20 µM
Experimental: For the in vitro Sumoylation assay, bacteria‐purified GST‐PIAS3 and HEK293T‐purified MITF were incubated with SAE1, UBC9 in reaction buffer according to the manufacturer's instructions at 37 °C for 2 h. For the in vitro ubiquitination assay, purified His‐METTL10, GST‐PIAS3, Flag‐MITF, SAE1, and UBC9 proteins were incubated with ubiquitin, UBE1, UBE2B, and RNF4 in reaction buffer according to the manufacturer's instructions at 37 °C for 2 h. All the samples were subjected to immunoprecipitation and subsequently boiled in SDS‐PAGE loading buffer for immunoblotting.

`Cc1ccc(Nc2ncc3c(n2)N(C)C(=O)N(c2cccc(N)c2)C3)cn1` [LZQ-02-023-01, Three‐(3‐aminophenyl)‐1‐methyl‐7‐((6‐methylpyridin‐3‐yl)amino)‐3,4‐dihydropyrimido [4,5‐d] pyrimidin‐2 (1H)‐one] was tested, and the “Methylation of PIAS3 in cell-free system” value (METTL10) was “decreased”, the “PIAS3-mediated ubiquitination and degradation of MITF, GC cells” value [1] was “significantly promoted” and the IC50 (PRMT5+MTA) was 13.9 µM. The “PIAS3-mediated ubiquitination and degradation of MITF, cell-free system” value [2] was “significantly promoted”.
